In patent US12172975B2, “1H-indazole carboxamides as receptor-interacting protein kinase 1 inhibitors (RIPK1)” (BRISTOL-MYERS SQUIBB COMPANY, priority 2018, dated 2024) one finds IC50 data, which are given here for 24 compounds.

Counter-ions that a name gives are not always drawn. Like-named read-outs stand apart in the source and are kept apart here.

In experiment [1] the test system is MLKL phosphorylation in HT29-L23 human colorectal adenocarcinoma cells. As to the kind of experiment: MLKL Phosphorylation High-Content Assay. The following applies: 6 h, necroptosis induced with TNFα, SMAC mimetic and Z-VAD, read-out: pMLKL (IC50). It is filed as cell-based. The procedure, abridged:
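Following fixation and staining for phospho-S358 MLKL with Hoechst nuclear counterstain, high-content imaging quantified phosphorylation in HT29-L23 cells challenged 6 h with TNFα 35 ng/mL, SMAC mimetic 700 nM and Z-VAD 140 nM. Nec-1s at 6.25 μM defined full inhibition; 4-parameter logistic fits yielded IC50 and Ymax.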

Experiment [2] concerns the target His-GST-TVMV-hRIPK1 (1-324) (Homo sapiens (Human), UniProt Q13546). As to the kind of experiment: RIPK1 HTRF Binding Assay. The following applies: read-out: RIPK1 HTRF (IC50); FRET probe displacement, 1 h at rt.

His-GST-TVMV-hRIPK1 (1-324), sequence (Q13546 1-324): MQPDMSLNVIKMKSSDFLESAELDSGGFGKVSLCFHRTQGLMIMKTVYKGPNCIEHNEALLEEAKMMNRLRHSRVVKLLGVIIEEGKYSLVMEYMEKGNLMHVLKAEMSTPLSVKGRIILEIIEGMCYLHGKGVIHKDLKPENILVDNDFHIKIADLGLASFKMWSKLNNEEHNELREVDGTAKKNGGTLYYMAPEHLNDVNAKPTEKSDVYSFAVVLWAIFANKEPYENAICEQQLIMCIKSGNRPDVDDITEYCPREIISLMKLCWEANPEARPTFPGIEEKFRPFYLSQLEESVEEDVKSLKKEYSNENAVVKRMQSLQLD

Take `CNC(=O)c1n[nH]c2cc(-c3cnc(OC)c(C(=O)NCc4cc(C(F)(F)F)ccc4OC)c3)ccc12` [Example 76, 6-[6-methoxy-5-({[2-methoxy-5-(trifluoromethyl)phenyl]-methyl}carbamoyl)pyridin-3-yl]-N-methyl-1H-indazole-3-carboxamide]: the IC50 in experiment [1] (Homo sapiens) is 100 nM; in experiment [2] it was 98 nM.

In the case of `CNC(=O)c1n[nH]c2cc(-c3cnc(OC)c(C(=O)NCCC(=O)OC(C)(C)C)c3)ccc12` [Example 74, tert-butyl 3-({2-methoxy-5-[3-(methylcarbamoyl)-1H-indazol-6-yl]pyridin-3-yl}formamido)-propanoate], the figures for the IC50 in experiment [1] (Homo sapiens) and in experiment [2] were 62 nM and 28 nM, respectively.

Turning to `CNC(=O)c1n[nH]c2cc(-c3cnc(OC)c(C(=O)NCc4cc(F)cc(F)c4OC(C)C)c3)ccc12` [Example 126, 6-[5-({[3,5-difluoro-2-(propan-2-yloxy)phenyl]methyl}-carbamoyl)-6-methoxypyridin-3-yl]-N-methyl-1H-indazole-3-carboxamide], the IC50 stood at 6.9 nM in experiment [1] (Homo sapiens) and 4.2 nM in experiment [2].

On to `COc1ncc(-c2ccc3c(C(=O)NC4CC4)n[nH]c3c2)cc1C(=O)N[C@H](C)c1cc(OC(F)(F)F)ccc1F` [Example 207, N-cyclopropyl-6-(5-{[(1R)-1-[2-fluoro-5-(trifluoromethoxy)-phenyl](2,2,2-deutero)ethyl]-carbamoyl}-6-(deutero)methoxy-pyridin-3-yl)-1H-indazole-3-carboxamide], for which the IC50 in experiment [1] stood at 110 nM; in experiment [2], 53 nM.

Take `[2H]C([2H])([2H])Oc1ncc(-c2ccc3c(C(=O)NC)n[nH]c3c2)cc1C(=O)NCC(C)(C)C(=O)OC(C)(C)C` [Example 28, tert-butyl 3-{[2-(deutero)meth-oxy-5-[3-(methylcarbamoyl)-1H-indazol-6-yl]pyridin-3-yl]form-amido}-2,2-dimethylpropanoate, TFA]: the IC50 in experiment [1] (Homo sapiens) was 37 nM; in experiment [2] it was 17 nM.

With `COc1ncc(-c2ccc3c(C(=O)NC4CCN(C(C)=O)CC4)n[nH]c3c2)cc1C(=O)NCc1ccccc1OC(F)(F)F` [Example 180, N-(1-acetylpiperidin-4-yl)-6-[6-methoxy-5-({[2-(trifluoro-methoxy)phenyl]methyl}carbam-oyl)pyridin-3-yl]-1H-indazole-3-carboxamide], the IC50 in experiment [1] (Homo sapiens) is 39 nM; in experiment [2] it was 19 nM.

Consider `COc1ncc(-c2ccc3c(C(=O)NC4CC(=O)N(C(C)C)C4)n[nH]c3c2)cc1C(=O)NCc1ccccc1OC(F)(F)F` (stereo not drawn) [Example 181, 6-[6-methoxy-5-({[2-(trifluoro-methoxy)phenyl]methyl}carbam-oyl)pyridin-3-yl]-N-[5-oxo-1-(propan-2-yl)pyrrolidin-3-yl]-1H-indazole-3-carboxamide, TFA], for which the IC50 in experiment [1] (Homo sapiens) was found to be 82 nM; in experiment [2], 27 nM.

In the case of `CNC(=O)c1n[nH]c2cc(-c3cnc(OC)c(C(=O)NCc4ccccc4OCC4CCC4)c3)ccc12` [Example 86, 6-[5-({[2-(cyclobutylmethoxy)-phenyl]methyl}carbamoyl)-6-methoxypyridin-3-yl]-N-methyl-1H-indazole-3-carbox-amide], the IC50 worked out at 4.1 nM in experiment [1] and 2.4 nM in experiment [2].

Turning to `CNC(=O)c1n[nH]c2cc(-c3cnc(OC)c(C(=O)NCc4c(F)cccc4OC(C)C)c3)ccc12` [Example 127, 6-[5-({[2-fluoro-6-(propan-2-yloxy)phenyl]methyl}-carbamoyl)-6-methoxy-pyridin-3-yl]-N-methyl-1H-indazole-3-carboxamide], the IC50 was determined as 3.7 nM in experiment [1] (Homo sapiens) and 2.3 nM in experiment [2].

Consider `[2H]C([2H])([2H])NC(=O)c1n[nH]c2cc(-c3cnc(OC([2H])([2H])[2H])c(C(=O)N[C@@H](C)c4cccc(C(F)(F)F)c4)c3)ccc12` [Example 214, 6-[6-(deutero)methoxy-5-{[(1S)-1-[3-(trifluoromethyl)phenyl]ethyl]carbam-oyl}pyridin-3-yl]-N-(deutero)methyl-1H-indazole-3-carboxamide], for which the results for the IC50 in experiment [1] (Homo sapiens) and in experiment [2] were 36 nM and 9.8 nM, respectively.

`CNC(=O)c1n[nH]c2cc(-c3cnc(OC)c(C(=O)NCc4cc(C(F)(F)F)ccn4)c3)ccc12` [Example 143, 6-[6-methoxy-5-({[4-(trifluoro-methyl)pyridin-2-yl]methyl}-carbamoyl)pyridin-3-yl]-N-methyl-1H-indazole-3-carboxamide]: the IC50 came out at 26 nM in experiment [1] (Homo sapiens) and 28 nM in experiment [2].

On to `CNC(=O)c1n[nH]c2cc(-c3cnc(OC)c(C(=O)NCC4CCCOC4c4ccccc4)c3)ccc12` (stereo not drawn) [Example 79, 6-(6-methoxy-5-{[(2-phenyl-oxan-3-yl)methyl]carbamoyl}-pyridin-3-yl)-N-methyl-1H-indazole-3-carboxamide], for which the values for the IC50 in experiment [1] (Homo sapiens) and in experiment [2] were 21 nM and 1.8 nM, respectively.

`CNC(=O)c1n[nH]c2cc(-c3cnc(OC)c(C(=O)NCc4ccc(F)c(C(F)(F)F)c4)c3)ccc12` [Example 104, 6-[5-({[4-fluoro-3-(trifluoro-methyl)phenyl]methyl}carbam-oyl)-6-methoxypyridin-3-yl]-N-methyl-1H-indazole-3-carboxamide]: the IC50 in experiment [1] was found to be 93 nM; in experiment [2], 40 nM.

On to `CCN(CC)C(=O)C1CCCC(NC(=O)c2cc(-c3ccc4c(C(=O)NC)n[nH]c4c3)cnc2OC)C1` (stereo not drawn) [Example 121, 6-(5-{[3-(diethylcarbamoyl)-cyclohexyl]carbamoyl}-6-methoxypyridin-3-yl)-N-methyl-1H-indazole-3-carbox-amide], for which the IC50 in experiment [1] is 7.5 nM; in experiment [2] it was 6.1 nM.

Consider `[2H]C([2H])([2H])Oc1ncc(-c2ccc3c(C(=O)NC4CC4)n[nH]c3c2)cc1C(=O)NC1CCCC(C(=O)N2CCC(F)(F)C2)C1` (stereo not drawn) [Example 203, N-cyclopropyl-6-(5-{[3-(3,3-difluoropyrrolidine-1-carbonyl)-cyclohexyl]carbamoyl}-6-(deutero)methoxypyridin-3-yl)-1H-indazole-3-carboxamide, TFA], for which the IC50 in experiment [1] (Homo sapiens) is 95 nM; in experiment [2], 12 nM.

On to `CNC(=O)c1n[nH]c2cc(-c3cnc(OC)c(C(=O)NCc4ncccc4OCC4CCC4)c3)ccc12` [Example 117, 6-[5-({[3-(cyclobutylmethoxy)-pyridin-2-yl]methyl}carbam-oyl)-6-methoxypyridin-3-yl]-N-methyl-1H-indazole-3-carboxamide, TFA], for which the figures for the IC50 in experiment [1] and in experiment [2] were 11 nM and 2.6 nM, respectively.

Regarding `[2H]C([2H])([2H])Oc1ncc(-c2ccc3c(C(=O)NC)n[nH]c3c2)cc1C(=O)N[C@@H](C)c1cccc(C(F)(F)F)c1` [Example 35, 6-[6-(deutero)methoxy-5-{[(1S)-1-[3-(trifluoromethyl)phenyl]-ethyl]carbamoyl}pyridin-3-yl]-N-methyl-1H-indazole-3-carboxamide], the IC50 stood at 44 nM in experiment [1] (Homo sapiens) and 10 nM in experiment [2].

Consider `[2H]C([2H])([2H])Oc1ncc(-c2ccc3c(C(=O)NCC4CC4)n[nH]c3c2)cc1C(=O)NCCC(=O)OC(C)(C)C` [Example 165, tert-butyl 3-[(5-{3-[(cyclopropyl-methyl)carbamoyl]-1H-indazol-6-yl}-2-(deutero)methoxypyridin-3-yl)formamido]propanoate], for which the figures for the half-maximal inhibitory concentration (IC50) in experiment [1] (Homo sapiens) and in experiment [2] were 15 nM and 140 nM, respectively.

As for `[2H]C([2H])([2H])Oc1ncc(-c2ccc3c(C(=O)NC4CC4)n[nH]c3c2)cc1C(=O)N[C@H](C)c1cc(OC(F)(F)F)ccc1F` [Example 201, N-cyclopropyl-6-(5-{[(1R)-1-[2-fluoro-5-(trifluoromethoxy)-phenyl]ethyl]carbamoyl}-6-(deutero)methoxypyridin-3-yl)-1H-indazole-3-carboxamide], the IC50 was 110 nM in experiment [1] (Homo sapiens) and 11 nM in experiment [2].

Regarding `CNC(=O)c1n[nH]c2cc(-c3cnc(OC)c(C(=O)NC4CCCC(C(=O)N5CCCC5)C4)c3)ccc12` (stereo not drawn) [Example 99, 6-(6-methoxy-5-{[3-(pyrrol-idine-1-carbonyl)cyclohexyl]-carbamoyl}pyridin-3-yl)-N-methyl-1H-indazole-3-carbox-amide], the IC50 in experiment [1] was determined as 14 nM; in experiment [2] it was 11 nM.

On to `CNC(=O)c1n[nH]c2cc(-c3cc(C(=O)NC(C)c4ccccc4OC(F)(F)F)c(C)nc3C)ccc12` (stereo not drawn) [Example 162, 6-[2,6-dimethyl-5-({1-[2-(trifluoromethoxy)phenyl]-ethyl}carbamoyl)pyridin-3-yl]-N-methyl-1H-indazole-3-carboxamide], for which the IC50 was 74 nM in experiment [1] (Homo sapiens) and 43 nM in experiment [2].

As for `CNC(=O)c1n[nH]c2cc(-c3cnc(OC)c(C(=O)NCc4cccnc4OC)c3)ccc12` [Example 94, 6-(6-methoxy-5-{[(2-methoxy-pyridin-3-yl)methyl]carbam-oyl}pyridin-3-yl)-N-methyl-1H-indazole-3-carboxamide, TFA], the IC50 came out at 96 nM in experiment [1] and 9.9 nM in experiment [2].

Take `CNC(=O)c1n[nH]c2cc(-c3cnc(OC)c(C(=O)NCCCOC4CCCCC4)c3)ccc12` [Example 62, 6-(5-{[3-(cyclohexyloxy)-propyl]carbamoyl}-6-methoxy-pyridin-3-yl)-N-methyl-1H-indazole-3-carboxamide]: the figures for the IC50 in experiment [1] (Homo sapiens) and in experiment [2] were 26 nM and 6.8 nM, respectively.

Consider `[2H]C([2H])([2H])Oc1ncc(-c2ccc3c(C(=O)NC)n[nH]c3c2)cc1C(=O)N[C@H](C)c1cccc(C(F)(F)F)c1` [Example 34, 6-[6-(deutero)methoxy-5-{[(1R)-1-[3-(trifluoromethyl)phenyl]-ethyl]carbamoyl}pyridin-3-yl]-N-methyl-1H-indazole-3-carbox-amide], for which the IC50 in experiment [1] (Homo sapiens) turned out to be 92 nM; in experiment [2], 57 nM.

As usually defined, the IC50 is the concentration needed to halve the response being measured.
